Measured values from US20250179052A1, “PYRIMIDINYL-OXY-QUINOLINE BASED HERBICIDAL COMPOUNDS” (SYNGENTA CROP PROTECTION AG, priority 2022, published 2025).

How the values were obtained:
Conditions in all cases: 250 g/ha, evaluated after 13 days, five-point scale
[1] = tested on: Amaranthus retoflexus (AMARE); assay: Post-emergence herbicidal glasshouse test; type: in vivo
AMAPA [2] = assay: Post-emergence herbicidal glasshouse test; type: in vivo, Amaranthus tuberculatus
[3] = tested on: Echinochloa crus-galli (ECHCG); assay: Post-emergence herbicidal glasshouse test; type: in vivo
[4] = tested on: Ipomoea hederacea (IPOHE); assay: Post-emergence herbicidal glasshouse test; type: in vivo
[5] = tested on: Amaranthus retoflexus (AMARE); assay: Pre-emergence herbicidal glasshouse test; type: in vivo
AMAPA [6] = assay: Pre-emergence herbicidal glasshouse test; type: in vivo, Amaranthus tuberculatus
[7] = tested on: Echinochloa crus-galli (ECHCG); assay: Pre-emergence herbicidal glasshouse test; type: in vivo
[8] = tested on: Ipomoea hederacea (IPOHE); assay: Pre-emergence herbicidal glasshouse test; type: in vivo

Compound | percentage damage caused to the plant, AMARE [1] | percentage damage caused to the plant, AMAPA (AMAPA [2]) | percentage damage caused to the plant, ECHCG [3] | percentage damage caused to the plant, IPOHE [4] | percentage damage caused to the plant, AMARE [5] | percentage damage caused to the plant, AMAPA (AMAPA [6]) | percentage damage caused to the plant, ECHCG [7] | percentage damage caused to the plant, IPOHE [8]
FC(F)(F)c1ncc2c(Oc3ncc(C4CC4)cn3)cccc2n1 [Compound 1.012] | 1 (1=0-20%) | 1 (1=0-20%) | 1 (1=0-20%) | 1 (1=0-20%) | 1 (1=0-20%) | 1 (1=0-20%) | 1 (1=0-20%) | 1 (1=0-20%)
Cc1ccc(Oc2ncc(Br)cn2)c2cnc(C(F)F)nc12 [Compound 1.023] | 2 (2=21-40%) | 3 (3=41-60%) | 1 (1=0-20%) | 1 (1=0-20%) | 2 (2=21-40%) | 1 (1=0-20%) | 1 (1=0-20%) | 1 (1=0-20%)
COc1nc(C)c2c(Oc3ncc(Cl)cn3)cccc2n1 [Compound 1.024] | 1 (1=0-20%) | 2 (2=21-40%) | 1 (1=0-20%) | 1 (1=0-20%) | 3 (3=41-60%) | 3 (3=41-60%) | 1 (1=0-20%) | 1 (1=0-20%)
Cc1cnc(Oc2ccc(C)c3nc(C(F)(F)F)ccc23)nc1 [Compound 1.025] | 2 (2=21-40%) | 3 (3=41-60%) | 1 (1=0-20%) | 2 (2=21-40%) | 1 (1=0-20%) | 1 (1=0-20%) | 1 (1=0-20%) | 1 (1=0-20%)
Cc1ccc(Oc2ncc(Br)cn2)c2ccc(C(F)(F)F)nc12 [Compound 1.026] | 2 (2=21-40%) | 2 (2=21-40%) | 1 (1=0-20%) | 1 (1=0-20%) | 1 (1=0-20%) | 1 (1=0-20%) | 1 (1=0-20%) | 1 (1=0-20%)
Cc1ccc(Oc2ncc(F)cn2)c2cnc(C(F)F)nc12 [Compound 1.027] | 2 (2=21-40%) | 2 (2=21-40%) | 1 (1=0-20%) | 2 (2=21-40%) | 2 (2=21-40%) | 2 (2=21-40%) | 1 (1=0-20%) | 1 (1=0-20%)
Cc1ccc(Oc2ncc(Cl)cn2)c2cnc(C(F)(F)F)nc12 [Compound 1.028] | 2 (2=21-40%) | 3 (3=41-60%) | 1 (1=0-20%) | 2 (2=21-40%) | 5 (5=81-100%) | 5 (5=81-100%) | 2 (2=21-40%) | 1 (1=0-20%)
Cc1ccc(Oc2ncc(F)cn2)c2ccc(C(F)(F)F)nc12 [Compound 1.029] | 3 (3=41-60%) | 4 (4=61-80%) | 1 (1=0-20%) | 2 (2=21-40%) | 2 (2=21-40%) | 3 (3=41-60%) | 1 (1=0-20%) | 1 (1=0-20%)
COc1ncc2c(Oc3ncc(F)cn3)ccc(Br)c2n1 [Compound 1.030] | 2 (2=21-40%) | 3 (3=41-60%) | 1 (1=0-20%) | 1 (1=0-20%) | 1 (1=0-20%) | 1 (1=0-20%) | 1 (1=0-20%) | 1 (1=0-20%)
COc1ncc2c(Oc3ncc(Br)cn3)ccc(Br)c2n1 [Compound 1.031] | 1 (1=0-20%) | 1 (1=0-20%) | 1 (1=0-20%) | 1 (1=0-20%) | 1 (1=0-20%) | 1 (1=0-20%) | 1 (1=0-20%) | 1 (1=0-20%)
FC(F)(F)c1ccc2c(Oc3ncc(Cl)cn3)ccc(Br)c2n1 [Compound 1.032] | 2 (2=21-40%) | 2 (2=21-40%) | 1 (1=0-20%) | 1 (1=0-20%) | 1 (1=0-20%) | 1 (1=0-20%) | 1 (1=0-20%) | 1 (1=0-20%)
Fc1cnc(Oc2ccc(Br)c3nc(C(F)(F)F)ccc23)nc1 [Compound 1.033] | 2 (2=21-40%) | 1 (1=0-20%) | 1 (1=0-20%) | 1 (1=0-20%) | 3 (3=41-60%) | 3 (3=41-60%) | 1 (1=0-20%) | 1 (1=0-20%)
FC(F)(F)c1ccc2c(Oc3ncc(Br)cn3)ccc(Br)c2n1 [Compound 1.034] | 1 (1=0-20%) | 1 (1=0-20%) | 1 (1=0-20%) | 1 (1=0-20%) | 1 (1=0-20%) | 1 (1=0-20%) | 1 (1=0-20%) | 1 (1=0-20%)
Cc1ccc(Oc2ncc(Cl)cn2)c2ccc(C(F)(F)F)nc12 [Compound 1.035] | 3 (3=41-60%) | 3 (3=41-60%) | 1 (1=0-20%) | 2 (2=21-40%) | 2 (2=21-40%) | 2 (2=21-40%) | 1 (1=0-20%) | 1 (1=0-20%)
Cc1cnc(Oc2ccc(C)c3nc(C(F)(F)Cl)ncc23)nc1 [Compound 1.036] | 2 (2=21-40%) | 3 (3=41-60%) | 1 (1=0-20%) | 1 (1=0-20%) | 4 (4=61-80%) | 3 (3=41-60%) | 1 (1=0-20%) | 1 (1=0-20%)
Cc1cnc(Oc2ccc(Cl)c3nc(C(F)(F)Cl)ncc23)nc1 [Compound 1.037] | 2 (2=21-40%) | 2 (2=21-40%) | 1 (1=0-20%) | 1 (1=0-20%) | 5 (5=81-100%) | 4 (4=61-80%) | 1 (1=0-20%) | 1 (1=0-20%)
Cc1nc(C(F)(F)Cl)nc2cccc(Oc3ncc(F)cn3)c12 [Compound 1.038] | 4 (4=61-80%) | 5 (5=81-100%) | 3 (3=41-60%) | 3 (3=41-60%) | 5 (5=81-100%) | 5 (5=81-100%) | 4 (4=61-80%) | 5 (5=81-100%)
FC(F)c1ncc2c(Oc3ncc(Br)cn3)ccc(Cl)c2n1 [Compound 1.039] | 2 (2=21-40%) | 2 (2=21-40%) | 1 (1=0-20%) | 1 (1=0-20%) | 1 (1=0-20%) | 1 (1=0-20%) | 1 (1=0-20%) | 1 (1=0-20%)
Cc1ccc(Oc2ncc(Cl)cn2)c2cnc(C(F)(F)Cl)nc12 [Compound 1.048] | 2 (2=21-40%) | 2 (2=21-40%) | 1 (1=0-20%) | 1 (1=0-20%) | – | 1 (1=0-20%) | 1 (1=0-20%) | 1 (1=0-20%)
Cc1nc(C(F)F)nc2cccc(Oc3ncc(Cl)cn3)c12 [Compound 1.067] | 4 (4=61-80%) | 4 (4=61-80%) | 1 (1=0-20%) | 3 (3=41-60%) | – | 3 (3=41-60%) | 1 (1=0-20%) | 2 (2=21-40%)
